The results in this text go back to ChEMBL document CHEMBL4011594, “Discovery and optimization of 2-pyridinone aminal integrase strand transfer inhibitors for the treatment of HIV” (Bioorg Med Chem Lett, 2017).

Usually solubility stands for the dissolved amount per volume that the medium holds.

A short description of data set [1]: Aqueous solubility of the compound at pH 7. It is filed as physicochemical.
Data set [2] concerns Human immunodeficiency virus 1. The data set can be described thus: Inhibition of wild-type HIV-1 integrase strand transfer activity assessed as reduction in viral replication in presence of 10% normal human serum.
For data set [3], the system named is Human immunodeficiency virus 1. In words: Inhibition of HIV-1 integrase strand transfer activity assessed as reduction in viral replication in presence of 50% normal human serum.
Data set [4] in a line: Aqueous solubility of the compound at pH 2. Format: physicochemical.

Values after ≈ are worked out from the molar mass of the structure shown. A value given as a limit tells only on which side of the number the result lay.

Turning to `O=C1NC2(CCCC2)n2c1c1c(c(O)c2=O)C(=O)N(Cc2ccc(F)c(Cl)c2)CC1`, the figures for the solubility in data set [1] and in data set [4] were 10 µM (≈ 4.32 µg/mL) and less than 5 µM, respectively. Further, the IP in data set [2] is 100 nM; in data set [3], 1600 nM.
Regarding `CN(CCN1C(=O)c2c3c(c(O)c(=O)n2C12CCC1CC12)C(=O)N(Cc1ccc(F)c(Cl)c1)CC3)S(C)(=O)=O` (stereo not drawn), the solubility turned out to be 17 µM (≈ 9.84 µg/mL) in data set [1] and 33 µM (≈ 19.1 µg/mL) in data set [4]. Also, the figures for the IP in data set [2] and in data set [3] were 19 nM and 150 nM, respectively.
As to `O=C1c2c(c3n(c(=O)c2O)C2(CCC4CC42)N(CC2CCOCC2)C3=O)CCN1Cc1ccc(F)c(Cl)c1` (racemic), the solubility worked out at 14 µM (≈ 7.59 µg/mL) in data set [1] and 44 µM (≈ 23.8 µg/mL) in data set [4]. Further, the IP in data set [2] worked out at 31 nM; in data set [3] it was 240 nM.
With `Cc1ccc2c(c1)CCC21NC(=O)c2c3c(c(O)c(=O)n21)C(=O)N(Cc1ccc(F)c(Cl)c1)CC3` (racemic), the solubility in data set [1] and in data set [4] was less than 3 µM in each case. The IP in data set [2] stood at 59 nM; in data set [3] it was 240 nM.
Take `CN1CCN(CCN2C(=O)c3c4c(c(O)c(=O)n3C23CCC2CC23)C(=O)N(Cc2ccc(F)c(Cl)c2)CC4)S1(=O)=O` (stereo not drawn): the values for the solubility in data set [1] and in data set [4] were 12 µM (≈ 7.27 µg/mL) and 18 µM (≈ 10.9 µg/mL), respectively. Further, the IP is 13 nM in data set [2] and 65 nM in data set [3].
For the molecule `CCC(O)CN1C(=O)c2c3c(c(O)c(=O)n2C12CCC1CC12)C(=O)N(Cc1ccc(F)c(Cl)c1)CC3` (stereo not drawn), the solubility in data set [1] is 54 µM (≈ 27.9 µg/mL); in data set [4] it was 69 µM (≈ 35.6 µg/mL). Besides, the IP came to 15 nM in data set [2] and 120 nM in data set [3].
The matching figures for `COC(C)(C)CCN1C(=O)c2c3c(c(O)c(=O)n2C12CCC1CC12)C(=O)N(Cc1ccc(F)c(Cl)c1)CC3` (stereo not drawn): less than 6 µM, less than 6 µM, 45 nM and 410 nM.
The matching figures for `Cc1cccc2c1CCC21NC(=O)c2c3c(c(O)c(=O)n21)C(=O)N(Cc1ccc(F)c(Cl)c1)CC3` (racemic): less than 2 µM, less than 2 µM, 140 nM and 540 nM.
The matching figures for `CN1C(=O)c2c3c(c(O)c(=O)n2C12CCC2)C(=O)N(Cc1ccc(F)c(Cl)c1)CC3`: less than 5 µM, less than 5 µM, 210 nM and 900 nM.
With `Cc1cccc2c1C1(CC2)NC(=O)c2c3c(c(O)c(=O)n21)C(=O)N(Cc1ccc(F)c(Cl)c1)CC3` (racemic), the solubility in data set [1] and in data set [4] was less than 2 µM throughout. The IP in data set [2] turned out to be 37 nM; in data set [3], 140 nM.
`COCCN1C(=O)c2c3c(c(O)c(=O)n2C12CCC1CC12)C(=O)N(Cc1ccc(F)c(Cl)c1)CC3` (stereo not drawn): the solubility in data set [1] amounted to 59 µM (≈ 29.6 µg/mL); in data set [4] it was 54 µM (≈ 27.1 µg/mL). Besides, the IP in data set [2] was 33 nM; in data set [3], 197 nM.
The matching figures for `COc1cccc2c1[C@]1(CC2)NC(=O)c2c3c(c(O)c(=O)n21)C(=O)N(Cc1ccc(F)c(Cl)c1)CC3`: 5 µM (≈ 2.55 µg/mL), less than 2 µM, 4 nM and 22 nM.
For the molecule `O=C1N[C@@]2(CC[C@@H]3C[C@@H]32)n2c1c1c(c(O)c2=O)C(=O)N(Cc2ccc(F)c(Cl)c2)CC1`, the solubility in data set [1] turned out to be 32 µM (≈ 14.2 µg/mL); in data set [4], 49 µM (≈ 21.7 µg/mL). Moreover, the IP in data set [2] was determined as 16 nM; in data set [3], 88 nM.
With `O=C1c2c(c3n(c(=O)c2O)C2(CCC4CC42)N(CCO)C3=O)CCN1Cc1ccc(F)c(Cl)c1` (stereo not drawn), the results for the solubility in data set [1] and in data set [4] were 107 µM (≈ 52.2 µg/mL) and 138 µM (≈ 67.3 µg/mL), respectively. Besides, the IP in data set [2] was 48 nM; in data set [3], 274 nM.
Consider `O=C1NC(C2CCCC2)n2c1c1c(c(O)c2=O)C(=O)N(Cc2ccc(F)c(Cl)c2)CC1` (racemic), for which the values for the solubility in data set [1] and in data set [4] were less than 5 µM and 116 µM (≈ 51.7 µg/mL), respectively. Besides, the IP in data set [2] is greater than 10000 nM; in data set [3] it was greater than 1000 nM.
The matching figures for `O=C1c2c(c3n(c(=O)c2O)C2(CCC4CC42)N(CCN2C(=O)c4ccccc4C2=O)C3=O)CCN1Cc1ccc(F)c(Cl)c1` (stereo not drawn): less than 2 µM, less than 2 µM, 80 nM and 890 nM.
The matching figures for `N#Cc1cccc2c1[C@@]1(CC2)NC(=O)c2c3c(c(O)c(=O)n21)C(=O)N(Cc1ccc(F)c(Cl)c1)CC3`: 17 µM (≈ 8.58 µg/mL), 10 µM (≈ 5.05 µg/mL), 1300 nM and 4110 nM.
As to `COc1nccc2c1C1(CC2)NC(=O)c2c3c(c(O)c(=O)n21)C(=O)N(Cc1ccc(F)c(Cl)c1)CC3` (racemic), the IP in data set [2] came out at 493 nM; in data set [3] it was 1940 nM.
`CN1CC(=O)N(CCN2C(=O)c3c4c(c(O)c(=O)n3C23CCC2CC23)C(=O)N(Cc2ccc(F)c(Cl)c2)CC4)C1=O` (stereo not drawn): the solubility worked out at 56 µM (≈ 32.7 µg/mL) in data set [1] and 136 µM (≈ 79.4 µg/mL) in data set [4]. The results for the IP in data set [2] and in data set [3] were 8 nM and 42 nM, respectively.
The matching figures for `O=C1NC2(Cc3ccccc3C2)n2c1c1c(c(O)c2=O)C(=O)N(Cc2ccc(F)c(Cl)c2)CC1`: less than 3 µM, less than 3 µM, 620 nM and 1800 nM.
For `O=C1c2c(c3n(c(=O)c2O)C2(CCC4CC42)N(CCN2CCCS2(=O)=O)C3=O)CCN1Cc1ccc(F)c(Cl)c1` (stereo not drawn), the solubility in data set [1] is less than 4 µM; in data set [4], 11 µM (≈ 6.5 µg/mL). Moreover, the IP in data set [2] came out at 17 nM; in data set [3] it was 170 nM.
The matching figures for `O=C(CN1C(=O)c2c3c(c(O)c(=O)n2C12CCC1CC12)C(=O)N(Cc1ccc(F)c(Cl)c1)CC3)N1CCOCC1` (stereo not drawn): 67 µM (≈ 38.3 µg/mL), 151 µM (≈ 86.2 µg/mL), 18 nM and 120 nM.
The matching figures for `Cc1ccc2c(c1)C1(CC2)NC(=O)c2c3c(c(O)c(=O)n21)C(=O)N(Cc1ccc(F)c(Cl)c1)CC3` (racemic): less than 2 µM, less than 2 µM, 45 nM and 230 nM.
The matching figures for `C[C@@H](O)CN1C(=O)c2c3c(c(O)c(=O)n2[C@@]12CC[C@H]1C[C@H]12)C(=O)N(Cc1ccc(F)c(Cl)c1)CC3`: 63 µM (≈ 31.6 µg/mL), 190 µM (≈ 95.4 µg/mL), 7 nM and 33 nM.
Consider `COCC(O)CN1C(=O)c2c3c(c(O)c(=O)n2C12CCC1CC12)C(=O)N(Cc1ccc(F)c(Cl)c1)CC3` (stereo not drawn), for which the figures for the solubility in data set [1] and in data set [4] were 123 µM (≈ 65.4 µg/mL) and 157 µM (≈ 83.5 µg/mL), respectively. The IP in data set [2] was determined as 16 nM; in data set [3] it was 130 nM.
`O=C1CC[C@@H](CN2C(=O)c3c4c(c(O)c(=O)n3C23CCC2CC23)C(=O)N(Cc2ccc(F)c(Cl)c2)CC4)N1` (stereo partly drawn): the IP in data set [2] came out at 40 nM; in data set [3] it was 130 nM.
Consider `CN1C(=O)c2c3c(c(O)c(=O)n2C12CCCCCC2)C(=O)N(Cc1ccc(F)c(Cl)c1)CC3`, for which the solubility in data set [1] and in data set [4] was less than 5 µM each time. Moreover, the values for the IP in data set [2] and in data set [3] were 1100 nM and 4800 nM, respectively.
Take `O=C1NC(C2CCC2)n2c1c1c(c(O)c2=O)C(=O)N(Cc2ccc(F)c(Cl)c2)CC1` (racemic): the solubility in data set [1] came to 31 µM (≈ 13.4 µg/mL); in data set [4] it was 40 µM (≈ 17.3 µg/mL). Also, the results for the IP in data set [2] and in data set [3] were 8340 nM and greater than 10000 nM, respectively.
